Where “and” joins values, the source holds several entries; their conditions need not be identical. Equal entries are not always repeated.
Tests used:
wild-type 3CL^pro = wild-type 3CL^pro (Severe acute respiratory syndrome coronavirus 2, UniProt P0DTD1); assay: biochemical; type: binding, SARS-CoV-2; conditions: K D (wt)
SARS-CoV-2 3CL^pro = conditions: cited from earlier work
[1] = target: T1, native SARS-CoV-2 3CL^pro (Severe acute respiratory syndrome coronavirus 2, UniProt P0DTD1); assay: biochemical; type: biochemical
SARS-CoV 3CL^pro = conditions: cited from earlier work
[2] = target: T1, native SARS-CoV-2 3CL^pro; type: biochemical

Structure (SMILES): O=C(Nc1ccc(N(Cc2ccsc2)C(=O)Cn2nnc3ccccc32)cc1)C1CC1 [ML300]
- Kd (wild-type 3CL^pro): 7.5 µM and 3.6 µM
- IC50 (SARS-CoV-2 3CL^pro): low micromolar range
- Ki [1]: 6.2 ± 0.4 µM

Structure (SMILES): CC(C)(C)c1ccc(N(C(=O)c2c[nH]cn2)[C@@H](C(=O)NC2CCCCC2)c2cccnc2)cc1 [X77]
- IC50 (SARS-CoV 3CL^pro): 3.4 µM
- binding kinetics (fast or slow-binding) [2]: fast
- covalent or noncovalent inhibition [2]: noncovalent
- reduction of reaction rate vi with respect to v0 [2]: ca. 70%
- reduction of thermal power minimum with respect to the noninhibited reaction [2]: ca. 40%
- tight or nontight binding [2]: nontight
- inhibition mode [1]: predominantly competitive
- α parameter [1]: 16 ± 3
